target: T1, TGFβ R1 (Homo sapiens, UniProt P36897); assay: TGFβ R1 autophosphorylation protocol (33P-ATP, phosphocellulose filter plate); format: biochemical; conditions: 10 uM ATP, 170 nM TGFβ R1, 20 minutes at room temperature, read-out: IC50 for Kinase Inhibition
T1 sequence (P36897 34-503): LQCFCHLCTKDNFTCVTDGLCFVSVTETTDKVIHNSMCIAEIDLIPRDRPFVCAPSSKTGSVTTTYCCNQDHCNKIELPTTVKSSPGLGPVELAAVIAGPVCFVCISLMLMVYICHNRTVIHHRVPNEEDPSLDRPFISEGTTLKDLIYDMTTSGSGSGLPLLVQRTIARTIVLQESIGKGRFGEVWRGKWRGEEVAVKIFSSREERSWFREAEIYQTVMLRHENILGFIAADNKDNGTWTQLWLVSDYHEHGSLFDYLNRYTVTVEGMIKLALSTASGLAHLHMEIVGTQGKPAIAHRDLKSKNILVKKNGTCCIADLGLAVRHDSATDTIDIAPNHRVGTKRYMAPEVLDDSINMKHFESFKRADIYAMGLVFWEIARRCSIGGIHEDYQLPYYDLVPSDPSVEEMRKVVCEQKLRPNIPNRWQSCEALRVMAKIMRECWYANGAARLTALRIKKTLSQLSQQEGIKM
Protocol: The compounds of the invention were tested for their ability to inhibit TGFβ by a TGFβ R^1 autophosphorylation protocol. This was conducted as follows: Compound dilutions and reagents were prepared fresh daily. Compounds were diluted from DMSO stock solutions to 2 times the desired assay concentration, keeping final DMSO concentration in the assay less than or equal to 1%. TGFβ R1 was diluted to 4 times the desired assay concentration in buffer+DTT. ATP was diluted into 4× reaction buffer, and gamma-^33P-ATP was added at 60 uCi/mL.
The assay was performed by adding 10 ul of the enzyme to 20 ul of the compound solution. The reaction was initiated by the addition of 10 ul of ATP mix. Final assay conditions included 10 uM ATP, 170 nM TGFβ R1, and […] in 20 mM MOPS, pH7. The reactions were incubated at room temperature for 20 minutes. The reactions were stopped by transferring 23 ul of reaction mixture onto a phosphocellulose 96-well filter plate, which had been pre-wetted with 15 ul of 0.25M H3PO4 per well. After 5 minutes, the wells were washed 4× with 75 mM H3PO4 and once with 95% ethanol. The plate was dried, scintillation cocktail was added to each well, and the wells were counted in a Packard TopCount microplate scintillation counter.

Row | SMILES | IC50 [µM]
1 | CCOP(=O)(OCC)O[C@@H](C)CNC(=O)c1cnccc1Nc1nc(-c2cc(Cl)ccc2F)ncc1OC [Compound 121, Phosphoric acid 2-({4-[2-(5-chloro-2-fluoro-phenyl)-5-methoxy-pyrimidin-4-ylamino]-pyridine-3-carbonyl}-amino)-1-methyl-ethyl ester diethyl ester] | 5.77
2 | CC(C)c1cnc(-c2cc(Cl)ccc2F)nc1Nc1ccncc1C(=O)NCC(C)(C)O [Compound 52, 4-[2-(5-Chloro-2-fluoro-phenyl)-5-isopropyl-pyrimidin-4-ylamino]-N-(2-hydroxy-2-methyl-propyl)-nicotinamide] | 0.09
3 | COC[C@H]1OC(CCNCCCNC(=O)c2cnccc2Nc2nc(-c3cc(Cl)ccc3F)ncc2OC)[C@@H](OC)[C@@H](OC)[C@@H]1OC (stereo partly drawn) [Compound 96, 4-[2-(5-Chloro-2-fluoro-phenyl)-5-methoxy-pyrimidin-4-ylamino]-N-(3-[2-(3,4,5-trimethoxy-6-methoxymethyl-tetrahydro-pyran-2-yl)-ethylamino]-propyl)-nicotinamide] | 0.07
4 | COc1cnc(-c2cc(Cl)ccc2F)nc1Nc1ccncc1C(=O)NCCCNCCO[C@H]1O[C@H](CO)[C@H](O)[C@H](O)[C@H]1O [Compound 139, 4-[2-(5-Chloro-2-fluoro-phenyl)-5-methoxy-pyrimidin-4-ylamino]-N-{3-[2-(3,4,5-trihydroxy-6-hydroxymethyl-tetrahydro-pyran-2-yloxy)-ethylamino]-propyl}-nicotinamide] | 0.007
5 | NC(=O)c1cnccc1Nc1nc(-c2cc(Cl)ccc2F)ncc1Cl [Compound 91, 4-[5-Chloro-2-(5-chloro-2-fluoro-phenyl)-pyrimidin-4-ylamino]-nicotinamide] | 0.2
6 | COc1cnc(-c2cc(Cl)ccc2F)nc1Nc1ccncc1C(=O)NCCCNCCOC1O[C@H](COC(C)=O)[C@@H](OC(C)=O)[C@H](OC(C)=O)[C@H]1OC(C)=O (stereo in doubt) [Compound 132, Acetic acid 3,4,5-triacetoxy-6-{2-[3-({4-[2-(5-chloro-2-fluoro-phenyl)-5-methoxy-pyrimidin-4-ylamino]-pyridine-3-carbonyl)-amino)-propylamino]-ethoxy}-tetrahydro-pyran-2-ylmethyl ester] | 0.032
7 | COc1cnc(-c2cc(Cl)ccc2F)nc1Nc1ccncc1C(=O)NC1CNC1 [Compound 87, N-Azetidin-3-yl-4-[2-(5-chloro-2-fluoro-phenyl)-5-methoxy-pyrimidin-4-ylamino]-nicotinamide] | 0.05
8 | COc1cnc(-c2cc(Cl)ccc2F)nc1Nc1ccncc1C(=O)NCCCN/C(=N/C#N)N1CCC1 [Compound 44] | 0.13
9 | COc1cnc(-c2cc(Cl)ccc2F)nc1Nc1ccncc1C(=O)NC[C@H]1O[C@@H](O)[C@H](O)[C@@H](O)[C@@H]1O [Compound 34, 4-[2-(5-Chloro-2-fluoro-phenyl)-5-methoxy-pyrimidin-4-ylamino)-N-(3,4,5,6-tetahydroxy-tetrahrydro-pyran-2-ylmethyl)-nicotinamide] | 1.16

same assay, conditions: 10 uM ATP, 170 nM TGFβ R1, room temperature 20 minutes, read-out: IC50 for Kinase Inhibition

Row | SMILES | IC50 [µM]
10 | CC(C)c1cnc(-c2cc(Cl)ccc2F)nc1Nc1ccncc1C(=O)NC1CCN(C)CC1 [Compound 178, 4-[2-(5-Chloro-2-fluoro-phenyl)-5-isopropyl-pyrimidin-4-ylamino]-N-(1-methyl-piperidin-4-yl)-nicotinamide] | 0.003
11 | CNC(=O)[C@@H]1CCCN1CCCNC(=O)c1cnccc1Nc1nc(-c2cc(Cl)ccc2F)ncc1C(C)C [Compound 177, 4-[2-(5-Chloro-2-fluoro-phenyl)-5-isopropyl-pyrimidin-4-ylamino]-N-[3-(2-methylcarbamoyl-pyrrolidin-1-yl)-propyl]-nicotinamide] | 0.011
12 | COc1cnc(-c2cc(Cl)ccc2F)nc1Nc1ccncc1C(=O)NCCNCC[C@@H]1O[C@H](CO)[C@@H](O)[C@H]1O [Compound 176, 4-[2-(5-Chloro-2-fluoro-phenyl)-5-methoxy-pyrimidin-4-ylamino]-N-{2-[2-(3,4-dihydroxy-5-hydroxymethyl-tetrahydro-furan-2-yl)-ethylamino]-ethyl}-nicotinamide] | 0.005

Reference: US20060281763A1, “Carboxamide inhibitors of TGFbeta” (priority 2005, published 2006)
